Measured values taken from patent US9434705B2, “L-setastine hydrochloride and preparation method thereof” (ANHUI QINGYUN PHARMACEUTICAL & CHEMICAL CO., LTD., priority 2011, dated 2016).

Key:
guinea pigs [1] = assay: histamine-induced death of guinea pigs after oral dosing of test sample; assay type: in vivo, guinea pig; settings: for Number of death: gavage for two days, then histamine 20 mg/kg, deaths within 24 hours, + = died next day; for Death Percentage: histamine 20 mg/kg; for protective effect on histamine-induced death for guinea pigs: 0.16-0.68 mg/kg, result in words
Method: 1. Sample name: KL-001 (R-setastine hydrochloride prepared in embodiment 6), KL-002 (L-setastine hydrochloride prepared from embodiment 2, 3, 4, 5, or 6), and KL-003 (setastine hydrochloride racemic) provided by Anhui Kelong medicine research institute).
2. The specifications of content: There are three groups of each sample, which is high, medium, and small-dose group, wherein dosages for high, medium, small-dose group are 0.68 mg/kg, 0.32 mg/kg, and 0.16 mg/kg respectively. The dosages are considerable 20, 10, and 5 times comparing with the clinical dosages.
3. The preparation method for test sample: For the KL-001 sample, 84 ml of distilled water is added to KL-001 sample so as to obtain a large-dose group of KL-001, which is according to the gavage feeding volume of guinea pigs, which is 0.1 ml/100 g, which is the same as 0.68 mg/kg; and medium and small-does group of KL-001 are diluted by the high-dose group of KL-001 for double and quadruple times. For the KL-002 sample, 125 ml of distilled water is added to KL-002 sample to obtain a large-dose group of KL-002, which is according to the gavage feeding volume of guinea pigs, which is 0.1 ml/100 g, which is the same as 0.68 mg/kg; and medium and small-does group are diluted by the high-dose group for double and quadruple times. For KL-003 sample, 75 ml of distilled water is added to KL-003 sample so as to obtain a large-dose group of KL-003, which is according to the gavage feeding volume of guinea pigs, which is 0.1 ml/100 g, which is the same as 0.68 mg/kg; and medium and small-does group of KL-003 are diluted by the high-dose group of Kl-003 for double and quadruple times.
112 guinea pigs are fed in the feeding environment (to adapt in the environment) for three days, and are randomly divided into 10 groups, namely a control group, a high-dose group of KL-001, a medium-dose group of KL-001, a small-dose group of KL-001, a high-dose group of KL-002, a medium-dose group of KL-002, a small-dose group of KL-002, a high-dose group of KL-003, a medium-dose group of KL-003, and a small-dose group of KL-003. The dosage for high-dose group of Kl-001, KL-002, and Kl-003 is 0.68 mg/kg, and the dosage for medium-dose group of Kl-001, KL-002, and Kl-003 is 0.32 mg/kg, and the dosage for small-dose group of Kl-001, KL-002, and Kl-003 is 0.16 mg/kg, which are 20, 10, 5 times respectively comparing with the clinical dose. Each guinea pig from each group is fed by corresponding amounts of test sample for two days, which is according to the amount of 0.1 ml/100 g. Finally, each guinea pig is fed with lethal dose of histamine, which is 20 mg/kg after the last injection of test sample, and then observing the number of deaths of guinea pigs within 24 hours.

[2] = inventors' finding on antihistaminic effect and sedation of D-setastine hydrochloride; settings: result in words
guinea pigs [3] = settings: background statement; cited from earlier work
patients = settings: racemic drug, China market; cited from earlier work

CC(OCCN1CCCCCC1)(c1ccccc1)c1ccc(Cl)cc1.Cl (stereo not drawn)
Number of death (guinea pigs [1]; 0.16 mg/kg (small dose)): 11
Death Percentage (guinea pigs [1]; 0.16 mg/kg (small dose)): 100%
Number of death (guinea pigs [1]; 0.32 mg/kg (medium dose)): 11
Death Percentage (guinea pigs [1]; 0.32 mg/kg (medium dose)): 100%
Number of death (guinea pigs [1]; 0.68 mg/kg (high dose)): 11
Death Percentage (guinea pigs [1]; 0.68 mg/kg (high dose)): 100%
protective effect on histamine-induced death for guinea pigs (guinea pigs [1]): doesn't has the protective effect
protective effect on histamine-induced death for guinea pigs (guinea pigs [1]; listed as D-setastine hydrochloride): no protective effect
protective effect on histamine-induced death for guinea pigs (guinea pigs [1]; listed as Kl-001): doesn't has protective effect
antihistaminic effect [2]: no antihistaminic effect
side effects of sedation [2]: can produce side effects of sedation

CC(OCCN1CCCCCC1)(c1ccccc1)c1ccc(Cl)cc1 (racemic) [KL-003]
Number of death (guinea pigs [1]; 0.16 mg/kg (small dose)): 6 + 2
Death Percentage (guinea pigs [1]; 0.16 mg/kg (small dose)): 66%
Number of death (guinea pigs [1]; 0.32 mg/kg (medium dose)): 3 + 1
Death Percentage (guinea pigs [1]; 0.32 mg/kg (medium dose)): 36%
Number of death (guinea pigs [1]; 0.68 mg/kg (high dose)): 1 + 1
Death Percentage (guinea pigs [1]; 0.68 mg/kg (high dose)): 16%
protective effect on histamine-induced death for guinea pigs (guinea pigs [1]): significant protective effect
protective effect on histamine-induced death for guinea pigs (guinea pigs [1]; listed as setastine hydrochloride racemic): have protective effects
histamine-induced bronchial spasms (guinea pigs [3]): inhibit
sedative side effects in clinical use (patients): stronger sedative side effects

C[C@@](OCCN1CCCCCC1)(c1ccccc1)c1ccc(Cl)cc1 [KL-002]
Number of death (guinea pigs [1]; 0.16 mg/kg (small dose)): 4 + 1
Death Percentage (guinea pigs [1]; 0.16 mg/kg (small dose)): 45%
Number of death (guinea pigs [1]; 0.32 mg/kg (medium dose)): 2
Death Percentage (guinea pigs [1]; 0.32 mg/kg (medium dose)): 18%
Number of death (guinea pigs [1]; 0.68 mg/kg (high dose)): 0
Death Percentage (guinea pigs [1]; 0.68 mg/kg (high dose)): 0%
protective effect on histamine-induced death for guinea pigs (guinea pigs [1]): significant protective effect
protective effect on histamine-induced death for guinea pigs (guinea pigs [1]; listed as L-setastine hydrochloride): have protective effects
protective effect compared with setastine hydrochloride racemic (guinea pigs [1]; comparison in words): stronger
